Measured values as given in patent publication EP0059683A2, “7-Acylamido-3-cephem-4-carboxylic acids, process for their preparation, pharmaceutical compositions containing them and their use” (CIBA-GEIGY AG, priority 1981, dated 1982).
Converted amounts (≈) assume the structure as drawn.

Experiments:
[1] = test system: Klebsiella pneumoniae 327; assay: Antibiotic activity in vitro, agar dilution method in DST agar (MIC); assay type: cell-based; conditions: for MIC: Klebsiella pneumoniae, 327
Excerpt: (§1) A. Die antibiotische Aktivität der Testverbindungen in vitro wurde durch die Agarverdünnungsmethode nach Ericsson, H.M., und Sherris, S.C., 1971, Acta Path. Microb. Scand. Section B, Suppl. No. 217, Bd. 1-90, in DST Agar ermittelt. Die gefundenen, das Wachstum der Testorganismen noch hemmenden Minimalkonzentrationen (MIC = minimum inhibiting concentrations) werden in Mikrogramm pro Milliliter […] für die geprüften Verbindungen in der Tabelle 1 angegeben.

Escherichia coli 205 [2] = assay: as above; assay type: cell-based; conditions: for MIC: Escherichia coli, 205
Excerpt: as §1

[3] = test system: Salmonella typhimurium 277; assay: as above; assay type: cell-based; conditions: for MIC: Salmonella enterica, TYPHIMURIUM
Excerpt: as §1

[4] = test system: Pseudomonas aeruginosa 799/61; assay: as above; assay type: cell-based; conditions: for MIC: Pseudomonas aeruginosa, 799/61
Excerpt: as §1

Proteus morganii 2359 = assay: Chemotherapeutic efficacy in vivo against systemic infection in mice (ED50); conditions: s.c., female SPF MF2 mice; for ED50: Morganella morganii, 2359, sc
Excerpt: (§2) B. Die chemotherapeutische Wirksamkeit in vivo gegen systemische Infektionen in weiblichen SPF, MF2 Mäusen wurde nach der Methode von Zak., 0., et al., 1979, Drugs Exptl. Clin. Res. 5, 45-59, ermittelt. Die gefundenen ED50-Werte in Milligramm Substanz pro Kilogramm Maus (mg/kg) für eine Anzahl von Mikroorganismen werden für die oral (p.o.) oder subcutan (s.c.) applizierten Testverbindungen in der Tabelle 2 angegeben.

Escherichia coli 205 [5] = assay: as above; conditions: s.c., female SPF MF2 mice; for ED50: Escherichia coli, 205, sc
Excerpt: as §2

[6] = test system: Staphylococcus anvens 10B; assay: as above; conditions: female SPF MF2 mice; for ED50: Staphylococcus, 10B, sc
Excerpt: as §2

NC(=O)c1cc[n+](CC2=C(C(=O)[O-])N3C(=O)C(NC(=O)C(NC(=O)OC[C@@H](N)C(=O)O)c4csc(N)n4)C3SC2)cc1 (stereo partly drawn) [Testverbindung 26, 3-(4-Carbamoylpyridiniomethyl)-7β-[(2R,S)-2-((2R)-2-amino-2-car-boxyäthoxycarbonylamino)-2-(2-aminothiazol-4-yl)-acetamido]-3-cephem-4-carboxylat]
MIC Klebsiella pneumoniae 327 [1]: 0,1 µg/ml
MIC Escherichia coli 205 (Escherichia coli 205 [2]): 0,1 µg/ml
MIC Salmonella typhimurium 277 [3]: 0,1 µg/ml
MIC Pseudomonas aeruginosa 799/61 [4]: 0,5 µg/ml
ED50 Proteus morganii 2359 (Proteus morganii 2359): 70 mg/kg
ED50 Escherichia coli 205 (Escherichia coli 205 [5]): 1 mg/kg
ED50 Staphylococcus anvens 10B ([6]; s.c.): >30 mg/kg

NC(=O)c1cc[n+](CC2=C(C(=O)[O-])N3C(=O)[C@@H](NC(=O)C(NC(=O)OC[C@@H](N)C(=O)O)c4csc(N)n4)[C@H]3SC2)cc1 (stereo partly drawn) [Testverbindung 26]
MIC [1]: 0.5 µg/mL (≈ 0.806 µM)
MIC (Escherichia coli 205 [2]): 0.2 µg/mL (≈ 0.322 µM)
MIC [3]: 0.2 µg/mL (≈ 0.322 µM)
MIC [4]: 0.5 µg/mL (≈ 0.806 µM)
ED50 (Proteus morganii 2359): 10 mg/kg
ED50 (Escherichia coli 205 [5]): 9 mg/kg
ED50 [6]: 15 mg/kg

CO[C@@]1(NC(=O)CCCNC(=O)OC[C@@H](N)C(=O)O)C(=O)N2C(C(=O)O)=C(COC(C)=O)CS[C@@H]21 [Testverbindung 27]
MIC [1]: 1 µg/mL (≈ 1.93 µM)
MIC (Escherichia coli 205 [2]): 1 µg/mL (≈ 1.93 µM)
MIC [3]: 1 µg/mL (≈ 1.93 µM)
MIC [4]: 0.5 µg/mL (≈ 0.964 µM)
ED50 (Proteus morganii 2359): 8 mg/kg
ED50 (Escherichia coli 205 [5]): 14 mg/kg
ED50 [6]: > 30 mg/kg

CO[C@@]1(NC(=O)CCCNC(=O)OC[C@@H](N)C(=O)O)C(=O)N2C(C(=O)O)=C(CSc3nnnn3C)CS[C@@H]21 [Testverbindung 28]
MIC [1]: 0.5 µg/mL (≈ 0.87 µM)
MIC (Escherichia coli 205 [2]): 1 µg/mL (≈ 1.74 µM)
MIC [3]: 0.5 µg/mL (≈ 0.87 µM)
MIC [4]: 0.2 µg/mL (≈ 0.348 µM)
ED50 (Proteus morganii 2359): 5 mg/kg
ED50 (Escherichia coli 205 [5]): 4 mg/kg
ED50 [6]: > 30 mg/kg

CC(=O)OCC1=C(C(=O)O)N2C(=O)[C@@H](NC(=O)CCCNC(=O)OC[C@@H](N)C(=O)O)[C@H]2SC1 [Testverbindung 29]
MIC [1]: 4 µg/mL (≈ 8.19 µM)
MIC (Escherichia coli 205 [2]): 32 µg/mL (≈ 65.5 µM)
MIC [3]: 2 µg/mL (≈ 4.09 µM)
MIC [4]: 1 µg/mL (≈ 2.05 µM)
ED50 (Proteus morganii 2359): 75 mg/kg
ED50 (Escherichia coli 205 [5]): 7 mg/kg
ED50 [6]: > 30 mg/kg

Cn1nnnc1SCC1=C(C(=O)O)N2C(=O)[C@@H](NC(=O)CCCNC(=O)OC[C@@H](N)C(=O)O)[C@H]2SC1 [Testverbindung 30]
MIC [1]: 0.5 µg/mL (≈ 0.918 µM)
MIC (Escherichia coli 205 [2]): 2 µg/mL (≈ 3.67 µM)
MIC [3]: 0.5 µg/mL (≈ 0.918 µM)
MIC [4]: 0.5 µg/mL (≈ 0.918 µM)
ED50 (Proteus morganii 2359): 10 mg/kg
ED50 (Escherichia coli 205 [5]): 1.7 mg/kg
ED50 [6]: > 30 mg/kg
